Measurements published in patent EP3034496A1, “NOVEL SOLVATES OF N-[2-[(1S)-1-(3-ETHOXY-4-METHOXYPHENYL)-2-(METHYLSULFONYL)ETHYL]-2,3-DIHYDRO-1,3-DIOXO-1H-ISOINDOL-4-YL]ACETAMIDE” (LEK Pharmaceuticals d.d., priority 2014, dated 2016).
Where two headings read alike, the source gives them in different places.

Columns and labels:
[1] = cited from earlier work; for solubility in H2O: value of the organic solvent incorporated into the crystal structure, not of the crystal form
[2] = 90th percentile of the particle size distribution as measured by length, from WO 2009/120167 A1, cited from earlier work
[3] = gravimetric moisture sorption desorption isotherm; type: physicochemical; conditions: 0 to 95% relative humidity, (25.0 ± 0.1) °C
Protocol: Gravimetric moisture sorption desorption isotherm was acquired using a SPS-11 moisture sorption analyzer (MD Messtechnik, Ulm, D). The sample was weighed into an Aluminium sample holder. […] The water content of the samples was determined after the moisture sorption/ desorption experiments with a TGA 7 system (Perkin Elmer, Norwalk, Ct., USA) using the Pyris 2.0 software according to the above described method.

CC#N [acetonitrile]
solubility in H2O [1]: 100 %w/w

CCOc1cc([C@@H](CS(C)(=O)=O)N2C(=O)c3cccc(NC(C)=O)c3C2=O)ccc1OC [Form E, N-[2-[(1S)-1-(3-ethoxy-4-methoxyphenyl)-2-(methylsulfonyl)ethyl]-2,3-dihydro-1,3-dioxo-1H-isoindol-4-yl]acetamide]
D90 ([2]; listed as E): < 18 microm

ClCCl [methylene chloride]
solubility in H2O [1]: 1.6 %w/w

CCOc1cc([C@@H](CS(C)(=O)=O)N2C(=O)c3cccc(NC(C)=O)c3C2=O)ccc1OC [Form G, N-[2-[(1S)-1-(3-ethoxy-4-methoxyphenyl)-2-(methylsulfonyl)ethyl]-2,3-dihydro-1,3-dioxo-1H-isoindol-4-yl]acetamide]
D90 ([2]; listed as G): < 18 microm

CC(C)=O [acetone]
solubility in water (in words) ([1]; organic solvent): freely soluble in water | solubility in H2O [1]: 100 %w/w

CCOc1cc([C@@H](CS(C)(=O)=O)N2C(=O)c3cccc(NC(C)=O)c3C2=O)ccc1OC [Form C, N-[2-[(1S)-1-(3-ethoxy-4-methoxyphenyl)-2-(methylsulfonyl)ethyl]-2,3-dihydro-1,3-dioxo-1H-isoindol-4-yl]acetamide]
D90 ([2]; listed as C): < 12 microm

CCOc1cc([C@@H](CS(C)(=O)=O)N2C(=O)c3cccc(NC(C)=O)c3C2=O)ccc1OC [Form D, N-[2-[(1S)-1-(3-ethoxy-4-methoxyphenyl)-2-(methylsulfonyl)ethyl]-2,3-dihydro-1,3-dioxo-1H-isoindol-4-yl]acetamide]
D90 ([2]; listed as D): < 18 microm

CCOC(C)=O [ethyl acetate]
aqueous solubility / water solubility ([1]; organic solvent): 8.7 % w/w | solubility in H2O [1]: 8.7 %w/w

N-[2-[(1S)-1-(3-ethoxy-4-methoxyphenyl)-2-(methylsulfonyl)ethyl]-2,3-dihydro-1,3-dioxo-1H-isoindol-4-yl]acetamide ethanol solvate
hygroscopicity [3]: non-hygroscopic (compounds showing a mass change of less than 2 weight% based on the weight of the compound in the range of from 0 to 95% relative humidity at (25.0 ± 0.1) °C) | mass change ([3]; based on the weight of the crystalline ethanol solvate): less than 0.5 % w/w

CCO [ethanol]
solubility in water (in words) ([1]; organic solvent): freely soluble in water | solubility in H2O [1]: 100 %w/w
